Results reported in publication PMC9267128, “New 2-[(4-Amino-6-N-substituted-1,3,5-triazin-2-yl)methylthio]-N-(imidazolidin-2-ylidene)-4-chloro-5-methylbenzenesulfonamide Derivatives, Design, Synthesis and Anticancer Evaluation” (International Journal of Molecular Sciences, 2022).

Tests used:
HCT-116 (colon cancer) = test: MTT cell viability assay, HCT-116; format: cell-based, human; details: for IC50: MTT assay, 72 h of incubation; for Selectivity Index (SI) HCT-116: IC50 value toward HaCaT cells/IC50 value toward HCT-116
Summary of the method: (§1)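 HCT-116 and HeLa cells in DMEM/10% FBS exposed 72 h to compounds over 1–100 µM. Viability by MTT (0.5 mg/mL, 2 h, 37 °C), formazan dissolved in DMSO and read at 550 nm; mean ± SD of at least three independent experiments.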

HeLa (cervical cancer) = test: MTT cell viability assay, HeLa; format: cell-based, human; details: for IC50: Homo sapiens, HeLa, MTT assay, 72 h of incubation; for Selectivity Index (SI) HeLa: IC50 value toward HaCaT cells/IC50 value toward HeLa
Summary of the method: as §1

[1] = tested on: HaCaT (human keratinocyte cell line); test: MTT cell viability assay, non-cancerous HaCaT; format: cell-based; details: Homo sapiens, HaCaT, 72 h, 72 h of incubation, non-cancerous keratinocytes
Summary of the method: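 Cells in DMEM with 10% FBS, 3 × 10^3 per well, exposed to compounds at 1–100 µM for 72 h at 37 °C. MTT at 0.5 mg/mL for 2 h, formazan dissolved in DMSO and read at 550 nm. Mean ± SD of at least three independent experiments, each in triplicate.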

[2] = tested on: A2780 (ovarian carcinoma cell line); test: MTT assay, wild-type p53 ovarian cancer cells A2780; format: cell-based; details: Homo sapiens, A2780, 72 h of incubation
Experimental: Thus, the ability of the selected compounds to exert cytotoxic activity toward cell lines harboring mutant p53 was examined. Compounds displaying a high selectivity index (Table 6) were selected for the analysis of their activity toward ovarian and breast cancer cells with wild-type p53 (A2780, MCF-7) and mutant p53 (SKOV-3, T47D).
Cell viability was examined using the MTT [3-(4,5-dimethylthiazol-2-yl)-2,5-diphenyltetrazolium bromide] assay. Cells were seeded in 96-well plates at a density of 3 × 10^3 cells/well and treated for 72 h with the tested compounds in the concentration range of 1–100 µM. Then, MTT (0.5 mg/mL) was added to the medium and cells were further incubated for 2 h at 37 °C. In the next stage, cells were lysed with DMSO and the absorbance of the formazan solution was measured at 550 nm with a plate reader (1420 multilabel counter, Victor, Jügesheim, Germany). The experiment was performed in triplicate. Values are expressed as the mean ± SD of at least three independent experiments. Cisplatin was used as a positive control.
Compounds 48, 62, 134, 138 and 140 were further examined toward MCF7 (breast cancer cell line, ATCC, HTB-22), T47D (breast cancer cell line, DSMZ ACC 739), A2780 (ovarian carcinoma cell line, ECACC, 93112519), and SKOV3 (ovarian carcinoma cell line, ATCC, HTB-77) cells. Cells were grown in Dulbecco’s Modified Eagle Medium (DMEM) supplemented with 10% fetal bovine serum (Thermo Fisher Scientific).

MCF-7 cells = test: Apoptosis analysis (Annexin V-PE/7-AAD flow cytometry) in MCF-7 cells; format: cell-based, human; details: MCF-7, 5, 10 and 25 µM, 72 h
Experimental: To confirm this, MCF-7 cells were treated with a concentration range of compounds 140 and 48 for 72 h. Flow cytometric analysis was performed with Annexin V-PE staining. […] The increase in apoptotic cells was mainly evident in the late apoptotic stage (upper right quadrant) (Figure 9).
Levels of apoptosis were measured by flow cytometry using the Annexin V-PE Apoptosis Detection Kit I (BD Biosciences, Belgium) according to the manufacturer’s instructions. Apoptosis was assessed after a 72 h treatment of MCF7 and T47D cells with compounds 48 and 140 in the concentrations of 5, 10 and 25 µM. Proceeding cell treatment, cells were collected, washed with PBS and stained with Annexin V-phycoerythrin (PE) and 7-amino-actinomycin (7-AAD) in Annexin V binding buffer for 15 min at RT in the dark. After staining, cells were diluted in Annexin V binding buffer and analyzed on a BD FACSCalibur flow cytometer (BD Biosciences). At total of 10^4 cells were analyzed from each sample and data were analyzed with Flowing software (version 2.5).

| IC50 (HCT-116 (colon cancer); Homo sapiens, HCT-116, 72 h) [µM] | IC50 (HeLa (cervical cancer)) [µM] | IC50 [2] [µM] | IC50 (HCT-116 (colon cancer)) [µM] | SMILES | Selectivity Index (SI) HCT-116 (HCT-116 (colon cancer)) | Selectivity Index (SI) HeLa (HeLa (cervical cancer)) | IC50 [1] [µM] | apoptotic population of cells (Annexin V-PE) (MCF-7 cells) |
| --- | --- | --- | --- | --- | --- | --- | --- | --- |
| 6 ± 0.1 | 25 ± 0.3 | 4 ± 0.1 |  | Cc1cc(S(=O)(=O)N=C2NCCN2Cc2ccccc2)c(SCc2nc(N)nc(N3CCc4ccccc43)n2)cc1Cl [Compound 48] | 5.5 | 1.3 | 33 ± 1 | concentration-dependent increase |
| < 6 | 8 ± 0.5 | 4.5 ± 0.1 | 5 ± 0.2 | Cc1cc(S(=O)(=O)N=C2NCCN2Cc2ccc(C(F)(F)F)cc2)c(SCc2nc(N)nc(N3CCN(Cc4ccccc4)CC3)n2)cc1Cl [Compound 140] | 4.4 | 2.7 | 22 ± 1 | concentration-dependent increase |
